Reference: article PMC6934184, “Selective DNA-PKcs inhibition extends the therapeutic index of localized radiotherapy and chemotherapy” (The Journal of Clinical Investigation, 2019)

Biological target: T1, FGFR3 K650M (Homo sapiens, UniProt P22607, K650M)
T1 construct: purchased Thermo Fisher Scientific (Life Technologies) SelectScreen
Assay: SelectScreen LanthaScreen
Type: binding
Conditions: read-out: % displacement
Outline: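 Percent values come from Thermo SelectScreen profiling of NU5455, combining activity and binding assays. CSF1R was run in Z'LYTE format at Km app ATP, and CAMK1 in Adapta format with ATP listed at 10.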

T1 sequence (P22607 23-806 K650M): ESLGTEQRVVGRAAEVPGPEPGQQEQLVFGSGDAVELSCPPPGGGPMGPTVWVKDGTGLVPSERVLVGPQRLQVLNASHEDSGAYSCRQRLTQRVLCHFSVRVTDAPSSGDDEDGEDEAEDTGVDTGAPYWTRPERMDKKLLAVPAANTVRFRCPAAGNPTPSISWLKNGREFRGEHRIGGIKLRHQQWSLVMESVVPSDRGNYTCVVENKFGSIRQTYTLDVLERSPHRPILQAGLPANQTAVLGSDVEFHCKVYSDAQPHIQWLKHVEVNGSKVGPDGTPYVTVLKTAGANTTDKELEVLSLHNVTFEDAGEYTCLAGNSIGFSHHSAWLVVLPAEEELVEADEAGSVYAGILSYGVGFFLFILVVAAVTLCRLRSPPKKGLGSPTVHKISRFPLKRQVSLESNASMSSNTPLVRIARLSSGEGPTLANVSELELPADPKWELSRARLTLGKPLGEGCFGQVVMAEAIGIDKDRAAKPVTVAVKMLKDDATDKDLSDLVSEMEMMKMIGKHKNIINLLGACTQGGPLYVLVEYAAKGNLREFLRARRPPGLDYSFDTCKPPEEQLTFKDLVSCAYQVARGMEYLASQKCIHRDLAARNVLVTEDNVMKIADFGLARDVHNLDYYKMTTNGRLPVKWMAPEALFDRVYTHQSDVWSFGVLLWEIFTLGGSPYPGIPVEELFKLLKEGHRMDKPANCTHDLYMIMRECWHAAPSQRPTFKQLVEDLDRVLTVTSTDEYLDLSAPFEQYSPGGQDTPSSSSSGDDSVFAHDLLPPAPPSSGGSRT

SMILES: CN(C(=O)CN1CCOCC1)c1ccc2sc3c(-c4cccc5c(=O)cc(N6CC7CCC(C6)O7)oc45)cccc3c2c1 [NU5455]
- inhibition at 1 µM: 16.5%
